The values that follow come from publication PMC10073911, “N-Arylacetamide derivatives of methyl 1,2-benzothiazine-3-carboxylate as potential drug candidates for urease inhibition” (Royal Society Open Science, 2023).

Values joined by “and” are separate entries in the source; they are usually repeats but may differ in a detail not shown here. Equal entries are not always repeated. Where two headings read alike, the source gives them in different places.

In one series the target is urease (Canavalia ensiformis, UniProt P07374). As to the kind of experiment: biochemical. To be noted: indophenol method, urea substrate 100 mM, absorbance at 630 nm, triplicate.
Sequence of urease (P07374 whole entry, looked up): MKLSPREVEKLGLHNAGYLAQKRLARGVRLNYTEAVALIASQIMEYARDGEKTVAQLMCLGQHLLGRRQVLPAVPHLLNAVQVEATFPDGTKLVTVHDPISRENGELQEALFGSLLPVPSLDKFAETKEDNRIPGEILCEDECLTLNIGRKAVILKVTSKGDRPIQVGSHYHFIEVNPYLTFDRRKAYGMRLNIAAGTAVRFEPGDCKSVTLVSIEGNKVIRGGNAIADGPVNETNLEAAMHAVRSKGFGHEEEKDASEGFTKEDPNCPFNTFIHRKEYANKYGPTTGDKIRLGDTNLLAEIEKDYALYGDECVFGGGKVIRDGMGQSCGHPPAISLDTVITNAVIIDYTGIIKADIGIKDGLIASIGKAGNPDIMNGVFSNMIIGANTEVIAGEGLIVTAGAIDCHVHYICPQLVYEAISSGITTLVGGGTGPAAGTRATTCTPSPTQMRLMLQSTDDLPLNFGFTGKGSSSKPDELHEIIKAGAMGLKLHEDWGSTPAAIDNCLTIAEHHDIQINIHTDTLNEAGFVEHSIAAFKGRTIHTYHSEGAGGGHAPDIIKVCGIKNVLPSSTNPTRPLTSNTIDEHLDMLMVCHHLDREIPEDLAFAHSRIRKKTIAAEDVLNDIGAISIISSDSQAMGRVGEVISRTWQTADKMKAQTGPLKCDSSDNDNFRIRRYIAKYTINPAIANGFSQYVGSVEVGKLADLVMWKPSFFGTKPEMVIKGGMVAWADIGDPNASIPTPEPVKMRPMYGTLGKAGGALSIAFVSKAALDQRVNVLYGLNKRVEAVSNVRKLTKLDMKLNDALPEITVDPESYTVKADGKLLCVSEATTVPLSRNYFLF
Setting [1] is: urease inhibition IC50 ± s.e.m.
Setting [2] is: read-out: urease inhibition IC50 ± s.e.m.

Method for urease: Compounds 5(a-n) were investigated to evaluate the inhibitory activity employing the slightly modified indophenol method [58, 59]. Assay mixture containing 1 unit of urease enzyme solution and 60 µl of buffer comprising urea substrate (100 mM) were pre-incubated with synthesized compounds (10 µl of 1 mM solution) at room temperature for 10 min in 96-well plates. Inhibitory activity of all test compounds was noted by measuring NH3 production using the above-mentioned protocol. Momentarily, phenolic reagent (50 µl) and alkali reagent (70 µl) were added in each well. After half an hour, absorbance at 630 nm was determined for all, using a Bio-Tek ELx 800, Instruments, Inc. USA Elisa-plate reader. Triplicate data for all the experiments was obtained and percentage inhibitory activities were calculated using the following formula: Inhibition percentage =100−( absorbance of experimental compound/absorbance of test control)×100.

`COC(=O)C1=C(O)c2ccccc2S(=O)(=O)N1CC(=O)Nc1ccccc1` [5a, Methyl 4-hydroxy-2-(2-oxo-2-(phenylamino)ethyl)-2H-benzo[e][1,2]thiazine-3-carboxylate 1,1-dioxide] registered a melting point of 188 to 190 °C. The same compound had an IC50 on urease (setting [1]) of 10.1 ± 0.9 µM. As for `COC(=O)C1=C(O)c2ccccc2S(=O)(=O)N1CC(=O)Nc1ccccc1OC` [5b, Methyl 4-hydroxy-2-(2-((2-methoxyphenyl)amino)-2-oxoethyl)-2H-benzo[e][1,2]thiazine-3-carboxylate 1,1-dioxide], the half-maximal inhibitory concentration (IC50) on urease (setting [1]) amounted to 14.9 ± 1.5 µM. For `COC(=O)C1=C(O)c2ccccc2S(=O)(=O)N1CC(=O)Nc1ccccc1C` [5c, Methyl 4-hydroxy-2-(2-oxo-2-(o-tolylamino)ethyl)-2H-benzo[e][1,2]thiazine-3-carboxylate 1,1-dioxide], the melting point was 172 to 174 °C. On urease (setting [1]), this compound displayed an IC50 of 17.2 ± 1.1 µM. The compound `COC(=O)C1=C(O)c2ccccc2S(=O)(=O)N1CC(=O)Nc1ccccc1C(=O)OC` [5d, Methyl 4-hydroxy-2-(2-((2-(methoxycarbonyl)phenyl)amino)-2-oxoethyl)-2H-benzo[e][1,2]thiazine-3-carboxylate 1,1-dioxide] yielded a melting point of 178 to 180 °C. On urease (setting [1]), this compound had an IC50 of 14.1 ± 0.12 µM.

Take `COC(=O)C1=C(O)c2ccccc2S(=O)(=O)N1CC(=O)Nc1cccc(OC)c1` [5e, Methyl 4-hydroxy-2-(2-((3-methoxyphenyl)amino)-2-oxoethyl)-2H-benzo[e][1, 2]thiazine-3-carboxylate 1,1-dioxide]: the IC50 on urease (setting [2]) was 18.2 ± 1.69 µM. The compound `COC(=O)C1=C(O)c2ccccc2S(=O)(=O)N1CC(=O)Nc1cccc(C)c1` [5f, Methyl 4-hydroxy-2-(2-oxo-2-(m-tolylamino)ethyl)-2H-benzo[e][1,2]thiazine-3-carboxylate 1,1-dioxide] yielded a melting point of 192 to 194 °C. For the same compound, the IC50 against urease (setting [1]) turned out to be 15.5 ± 1.35 µM. The matching figures for `COC(=O)C1=C(O)c2ccccc2S(=O)(=O)N1CC(=O)Nc1ccc(OC)cc1` [5g, Methyl 4-hydroxy-2-(2-((4-methoxyphenyl)amino)-2-oxoethyl)-2H-benzo[e][1,2]thiazine-3-carboxylate 1,1-dioxide]: 176 to 178 °C and 20.4 ± 1.81 µM. Turning to `COC(=O)C1=C(O)c2ccccc2S(=O)(=O)N1CC(=O)Nc1ccc(C)cc1` [5h, Methyl 4-hydroxy-2-(2-oxo-2-(p-tolylamino)ethyl)-2H-benzo[e][1,2]thiazine-3-carboxylate 1,1-dioxide], inhibition on urease (setting [1]) was half-maximal at 16.4 ± 1.4 µM (IC50). Regarding `COC(=O)C1=C(O)c2ccccc2S(=O)(=O)N1CC(=O)Nc1ccc(Cl)cc1` [5i, Methyl 2-(2-((4-chlorophenyl)amino)-2-oxoethyl)-4-hydroxy-2H-benzo[e][1,2]thiazine-3-carboxylate 1,1-dioxide], on urease (setting [1]), half-maximal inhibition (IC50) was put at 20.7 ± 0.25 µM.

Take `COC(=O)C1=C(O)c2ccccc2S(=O)(=O)N1CC(=O)Nc1ccc([N+](=O)[O-])cc1` [5j, Methyl 4-hydroxy-2-(2-((4-nitrophenyl)amino)-2-oxoethyl)-2H-benzo[e][1,2]thiazine-3-carboxylate 1,1-dioxide]: the melting point lay within 192 to 194 °C. This compound displayed an IC50 at urease (setting [1]) of 17.1 ± 1.45 µM.

The compound `CCOC(=O)c1ccc(NC(=O)CN2C(C(=O)OC)=C(O)c3ccccc3S2(=O)=O)cc1` [5k, Methyl 2-(2-((4-(ethoxycarbonyl)phenyl)amino)-2-oxoethyl)-4-hydroxy-2H-benzo[e][1,2]thiazine-3-carboxylate 1,1-dioxide] had an IC50 at urease (setting [1]) of 9.8 ± 0.023 µM. On the same count and under the same terms, the figure for `COC(=O)C1=C(O)c2ccccc2S(=O)(=O)N1CC(=O)Nc1ccc(NC(C)=O)cc1` [5l, Methyl 2-(2-((4-acetamidophenyl)amino)-2-oxoethyl)-4-hydroxy-2H-benzo[e][1,2]thiazine-3-carboxylate 1,1-dioxide] is 12.6 ± 0.1 µM. The compound `COC(=O)C1=C(O)c2ccccc2S(=O)(=O)N1CC(=O)Nc1cccc(Cl)c1Cl` [5m, Methyl 2-(2-((2,3-dichlorophenyl)amino)-2-oxoethyl)-4-hydroxy-2H-benzo[e][1,2]thiazine-3-carboxylate 1,1-dioxide] registered a melting point of 154 to 156 °C. Besides, the IC50 at urease (setting [1]) was 14 µM and 14.1 µM. `COC(=O)C1=C(O)c2ccccc2S(=O)(=O)N1CC(=O)Nc1ccc(Cl)cc1Cl` [5n, Methyl 2-(2-((2,4-dichlorophenyl)amino)-2-oxoethyl)-4-hydroxy-2H-benzo[e][1,2]thiazine-3-carboxylate 1,1-dioxide]: the IC50 against urease (setting [1]) was 13 µM and 13.1 µM. Take `NC(N)=S` [thiourea, reference compound]: the IC50 on urease (setting [2]) was found to be 22.3 ± 0.031 µM.

Usually IC50 stands for the concentration that inhibits the measured activity by half. In general, melting point refers to the temperature of the solid-liquid transition.
